This note sets out measurements from PubChem BioAssay AID652069 (The Scripps Research Institute Molecular Screening Center, 2013).

Activity calls are given as the source filed them.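 How the source made its calls: active means growth ratio of SRC-3 knockout over parental cells of 1.2 or more, reached at 10 µM or lower; inactive means the rest.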

In this test the test system is HeLa SRC-3 KO vs WT growth ratio, MTT, 5 d. The experiment in a line: growth ratio of SRC-3 knockout versus wild-type cells – cell-based, HeLa, zinc finger nuclease knockout, MTT, selectivity assay for SRC-1/SRC-3 inhibitor project, late-stage follow-up (AID 652069). The settings on record: at 10 µM (top of the series).

`CCC(=O)N1CCN(c2ccnc3cc(Cl)ccc23)CC1`: the KO/WT growth ratio, higher = selective is 1.11 (inactive). In the case of `c1ccc(-c2nnc(-c3ccccn3)nc2NC2CCCCC2)cc1` it was 1.01 (inactive); in that of `O=[N+]([O-])c1nn(-c2ccc3c(c2)OCCO3)n(O)c1=Nc1ccc(Cl)cc1`, 0.995 (inactive); in that of `Cc1ccc(OCC(=O)c2cc(C)n(-c3ccccc3)c2C)c([N+](=O)[O-])n1`, 0.934 (inactive).

For `CC(=O)/C(N=Nc1ccc2c(c1)OCCO2)=C(/C)O`, the KO/WT growth ratio, higher = selective is 1.02 (inactive). Then `Cc1cc(N=c2c([N+](=O)[O-])nn(-c3ccc4c(c3)OCCO4)n2O)ccc1Br`, with 0.974 (inactive). Then `Cc1c(/C(O)=C2/C(=O)C(=O)N(Cc3cccnc3)C2c2ccccn2)cnn1-c1ccccc1` (stereo unspecified), with 0.966 (inactive). In the case of `O=C(Nc1nc2ccccc2s1)C1c2ccccc2Oc2ccccc21`, the KO/WT growth ratio, higher = selective is 1.05 (inactive).

Take `Cc1ccc(OCC(=O)c2cc(C)n(Cc3cccs3)c2C)c([N+](=O)[O-])n1`: the KO/WT growth ratio, higher = selective is 0.969 (inactive). Take `Cc1ccc(/C=C2/SC(=S)N(CCCC(=O)Nc3ccc(O)cc3)C2=O)cc1`: the KO/WT growth ratio, higher = selective is 1.11 (inactive). Regarding `CC(C)n1c(SCC(=O)Nc2nc3c(s2)CCCC3)nc2c1c(=O)n(C)c(=O)n2C`, the KO/WT growth ratio, higher = selective is 1.03 (inactive). In the case of `CCc1ccc(N=c2c([N+](=O)[O-])nn(-c3ccc4c(c3)OCCO4)n2O)cc1` it was 0.982 (inactive); in that of `NS(=O)(=O)c1ccc(Nc2nc(-c3cccnc3)cs2)cc1`, 0.928 (inactive).

Consider `Cc1c(CC(=O)NCCCC(=O)O)c(=O)oc2cc3c(cc12)CCC(C)(C)O3`, for which the KO/WT growth ratio, higher = selective is 1.04 (inactive). In the case of `S=C(c1ccc(-c2ccccc2)cc1)N1CCOCC1` it was 0.918 (inactive); in that of `COc1ccc(/C=C2/SC(=S)N(CCC(=O)O)C2=O)cc1`, 1.07 (inactive); in that of `O=C(COC(=O)c1ccc[nH]c1=O)Nc1ccc(N2CCCCC2)cc1`, 0.954 (inactive). Then `Cc1cc(C)cc(N=c2c([N+](=O)[O-])nn(-c3ccc4c(c3)OCCO4)n2O)c1`, with 0.985 (inactive). In the case of `CN(C)c1ccc(CNC(=O)CCNS(=O)(=O)c2cc(Br)cnc2N)cc1` it was 1.04 (inactive); in that of `Cc1c(Cl)cccc1N=c1c([N+](=O)[O-])nn(-c2ccc3c(c2)OCCO3)n1O`, 1.03 (inactive). For `Cn1nc(C(F)(F)F)c(C#N)c1N1CCN(c2ccc(F)cc2)CC1`, the KO/WT growth ratio, higher = selective was 0.976 (inactive). `O=C1CCC2S/C(=C/Nc3ccc(C(F)(F)F)cc3)C(=O)N12` (stereo unspecified): the KO/WT growth ratio, higher = selective was 1.02 (inactive). Then `Cc1cc(/C=C2\Cc3ccccc3C2=O)c(C)n1-c1ccccc1`, with 1.01 (inactive).

Regarding `O=C(CCCc1nc(-c2ccccc2Cl)no1)NC1CCCC1`, the KO/WT growth ratio, higher = selective was 1.06 (inactive). In the case of `NC(=S)NN=C1CCSc2ccc(Cl)cc21` it was 1.09 (inactive). In the case of `O=[N+]([O-])c1nn(-c2ccc3c(c2)OCCO3)n(O)c1=Nc1ccccc1` it was 0.918 (inactive). Then `CC(=O)N1CCN(c2ncnc3ccccc23)CC1`, with 0.988 (inactive); and `O=C(Nc1nc(-c2ccccn2)cs1)c1cccc(S(=O)(=O)N2CCOCC2)c1`, with 1.23; and `O=C(CCl)NC(Cc1ccccc1)c1ccccc1` (stereo unspecified), with 1.07 (inactive). With `CCc1ccc(/C=C2\SC(=S)N(CCCC(=O)NCCCN3CCOCC3)C2=O)cc1`, the KO/WT growth ratio, higher = selective is 0.974 (inactive). `O=C(CCl)N1N=C(c2ccco2)CC1c1cccs1` (stereo unspecified): the KO/WT growth ratio, higher = selective is 2.05. Regarding `O=C(NC(NC(=S)N1CCOCC1)C(Cl)(Cl)Cl)c1ccc(Cl)cc1` (stereo unspecified), the KO/WT growth ratio, higher = selective is 1.05 (inactive). Then `CCCCC(=O)Nc1cccn2ncnc12`, with 0.954 (inactive). In the case of `Cc1ccc(N=c2c([N+](=O)[O-])nn(-c3ccc4c(c3)OCCO4)n2O)c(Cl)c1` it was 1.06 (inactive). In the case of `CCOC(=O)C(=CNc1ccc(NC2=NCC(C)S2)cc1)C(=O)OCC` (stereo unspecified) it was 1 (inactive); in that of `O=C(O)CN1C(=O)/C(=C\c2ccccc2OCc2ccc(Cl)cc2Cl)SC1=S`, 1.02 (inactive). As for `COc1cc2c(cc1OC)C(NC(=O)C(F)(F)F)CNC2=O` (stereo unspecified), the KO/WT growth ratio, higher = selective is 1.47.

For the compound `NC(=O)c1sc2nc3c(c(-c4ccco4)c2c1N)CCC3`, the KO/WT growth ratio, higher = selective was 1.23. In the case of `Cc1nn(CC(=O)N2CCN(c3cccc(C(F)(F)F)c3)CC2)c(=O)c2cccn12` it was 1.09 (inactive); in that of `COC(=O)c1c(C)n(-c2ccc(OC)cc2)c2ccc(O)cc12`, 1.01 (inactive). Then `COc1cc(C2c3cc4c(cc3C(OC3OC5COC(c6cccs6)OC5C(O)C3O)C3COC(=O)C23)OCO4)cc(OC)c1O` (stereo unspecified), with 1.2; and `COc1cc(N=c2c([N+](=O)[O-])nn(-c3ccc4c(c3)OCCO4)n2O)cc(OC)c1`, with 1.09 (inactive). Then `O=C(Nc1cccnc1)c1ccc(C(=O)Nc2cccnc2)cc1`, with 1.07 (inactive); and `O=C(CCl)N1N=C(c2ccco2)CC1c1ccco1` (stereo unspecified), with 1.42.

In the case of `S=C(Nc1ccccc1)Nc1ccc(OCc2ccc(Cl)cc2Cl)cc1`, the KO/WT growth ratio, higher = selective was 1.05 (inactive). In the case of `Cc1ccc(/C=C2\SC(=S)N(CCCC(=O)NC3CCCC3)C2=O)cc1` it was 0.962 (inactive); in that of `O=[N+]([O-])c1cccc2c1ccc1ncccc12`, 1.09 (inactive).

Turning to `CCOc1ccc(/C=C2\SC(=S)N(CCCC(=O)NCCCN3CCOCC3)C2=O)cc1`, the KO/WT growth ratio, higher = selective is 1.03 (inactive). Then `Cc1ccc(N=c2c([N+](=O)[O-])nn(-c3ccc4c(c3)OCCO4)n2O)cc1F`, with 1.02 (inactive); and `Cc1cccc(NC(=O)c2cc(Cl)ccc2[N+](=O)[O-])c1`, with 1.09 (inactive). In the case of `CC(C)N(c1ccccc1)c1ccc(NC(=O)CCl)cc1` it was 1.07 (inactive).
